In experiment [1] the target is T1, PBP2a (Staphylococcus aureus, UniProt P07944). The experiment in a line: Relative IC50 competition assay of peptide penicillanate conjugates against PBP2a (biotinylated ampicillin). In kind it is binding. Also noted: This part was cleaved off with DTT before the test.
Procedure: Relative IC50 Assay of Peptide Penicillanate Conjugates
Various concentration of conjugates were prepared by dissolving in reaction buffer (50 mM phosphate, pH=8.0; 100 mM NaCl) and incubating with 2 Vg pure PBP2a respectively at 37° C. for 15 min. 20 μg biotinylated ampicillin was added immediately and incubated at 37° C. for 10 min. The reaction was stopped by heating the reaction mixture at 94° C. for 5 min. The samples were loaded into 12% SDS-PAGE for separation, then were transferred to a nitrocellulose membrane by blotting with sodium bicarbonate buffer (20% methanol; 3 mM Na2CO3; 10 mM NaHCO3) at 400 mA for 3 hr. The membrane was blocked with blocking solution (20 mM Tris, pH=8.0; 150 mM NaCl; 0.05% TWEEN-20 detergent; 5% milk) for 1 hr, then incubated with 10 ml TBS buffer (20 mM Tris, pH=8.0; 150 mM NaCl) containing 1 μg/ml streptavidin-HRP protein (Pierce Chemical) at room temperature for 1 hr. The membrane was washed 6 times with 50 ml TBS buffer, at 5 min intervals, and covered with FEMTO-WESTERN blotting reagent (Pierce Chemical). The membrane was then examined under a digital camera at dark to collect chemiluminescent emission for 10-15 min.
In experiment [2] the target is T1, PBP2a. Particulars: cited from earlier work.
The target of experiment [3] is translation complex A site. The note with it: ribosome; cited from earlier work.
The target of experiment [4] is penicillin-binding protein 2a (PBP2a) (Staphylococcus aureus (MRSA)) (UniProt P07944). The experiment in a line: ratio of relative IC50 values against the 6-aminopenicillanic acid reference, biotinylated ampicillin competition on PBP2a.
Experiment [5] has the same target. The experiment in a line: relative IC50: conjugate pre-incubated with pure PBP2a 15 min at 37 C, then competition with biotinylated ampicillin, SDS-PAGE and streptavidin-HRP blot.
Experiment [6] has the same target. The experiment in a line: relative IC50: competition with biotinylated ampicillin for labelling of pure PBP2a, streptavidin-HRP blot.
For experiment [7], the target named is Crk N terminal SH3 domain (Homo sapiens, UniProt P46108). Particulars: substitution for proline at P2 and P−1; cited from earlier work.
The target in experiment [8] is Grb2 N terminal SH3 domain (Homo sapiens, UniProt P62993). The note with it: substitution for proline at P2 and P−1; cited from earlier work.

Peptide text beside a SMILES is read from it. * marks the point of attachment. X1 = CC1(C)S[C@@H]2[C@H](NC(=O)C*)C(=O)N2[C@H]1C(=O)O; Carboxymethyl = O=C(O)C*

Chain of penicillin-binding protein 2a (PBP2a) (Staphylococcus aureus (MRSA)) (P07944 23-670): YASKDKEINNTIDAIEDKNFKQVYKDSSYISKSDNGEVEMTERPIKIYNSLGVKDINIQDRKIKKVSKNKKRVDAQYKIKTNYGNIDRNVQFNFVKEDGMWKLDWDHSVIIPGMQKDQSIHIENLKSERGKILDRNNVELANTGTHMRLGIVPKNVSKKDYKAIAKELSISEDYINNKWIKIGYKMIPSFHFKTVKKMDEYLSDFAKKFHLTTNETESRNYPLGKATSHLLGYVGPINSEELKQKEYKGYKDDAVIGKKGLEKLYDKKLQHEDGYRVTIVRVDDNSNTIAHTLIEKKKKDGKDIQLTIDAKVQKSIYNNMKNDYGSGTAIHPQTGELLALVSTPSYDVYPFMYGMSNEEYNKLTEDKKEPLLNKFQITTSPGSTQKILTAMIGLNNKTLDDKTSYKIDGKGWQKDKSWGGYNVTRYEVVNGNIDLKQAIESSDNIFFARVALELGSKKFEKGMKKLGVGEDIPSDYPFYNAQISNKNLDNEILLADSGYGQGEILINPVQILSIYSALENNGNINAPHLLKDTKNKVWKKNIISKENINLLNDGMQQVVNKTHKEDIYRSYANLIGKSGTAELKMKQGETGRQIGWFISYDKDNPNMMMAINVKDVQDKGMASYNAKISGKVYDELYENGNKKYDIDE
T1 sequence (P07944 whole entry): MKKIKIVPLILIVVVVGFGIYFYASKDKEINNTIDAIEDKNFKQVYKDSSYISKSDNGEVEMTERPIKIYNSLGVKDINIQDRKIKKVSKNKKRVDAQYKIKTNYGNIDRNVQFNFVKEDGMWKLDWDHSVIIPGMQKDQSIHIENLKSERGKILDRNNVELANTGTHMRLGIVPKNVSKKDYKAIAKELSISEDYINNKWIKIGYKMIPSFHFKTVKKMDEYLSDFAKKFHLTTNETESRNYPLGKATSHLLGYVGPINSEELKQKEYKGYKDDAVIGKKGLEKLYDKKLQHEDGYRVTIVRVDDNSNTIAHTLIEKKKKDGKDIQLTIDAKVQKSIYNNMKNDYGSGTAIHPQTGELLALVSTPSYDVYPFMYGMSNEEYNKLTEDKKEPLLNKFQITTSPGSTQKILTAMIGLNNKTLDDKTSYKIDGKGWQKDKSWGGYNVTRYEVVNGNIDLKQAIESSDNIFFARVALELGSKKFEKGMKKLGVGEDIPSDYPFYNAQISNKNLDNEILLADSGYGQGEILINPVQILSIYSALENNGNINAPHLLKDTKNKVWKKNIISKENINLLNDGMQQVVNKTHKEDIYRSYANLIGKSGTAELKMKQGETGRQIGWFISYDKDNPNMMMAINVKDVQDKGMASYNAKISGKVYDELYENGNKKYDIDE
Chain of Crk N terminal SH3 domain (P46108 132-192 limits assumed): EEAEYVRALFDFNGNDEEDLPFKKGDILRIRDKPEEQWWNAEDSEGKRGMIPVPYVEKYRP
Chain of Grb2 N terminal SH3 domain (P62993 1-58 limits assumed): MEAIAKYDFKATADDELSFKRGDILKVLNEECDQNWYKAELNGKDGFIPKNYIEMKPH

In the case of `CC[C@H](C)[C@H](NC(=O)[C@H](CSCC(=O)O)NC(=O)[C@H](CC(N)=O)NC(=O)[C@H](CO)NC(=O)[C@H](CC(N)=O)NC(=O)[C@H](CCCNC(=N)N)NC(=O)[C@@H](N)CC(C)C)C(=O)N[C@@H](CCCNC(=N)N)C(=O)N[C@@H](Cc1c[nH]cn1)C(=O)N[C@@H](Cc1ccccc1)C(=O)N[C@@H](Cc1ccccc1)C(=O)O` [unmodified peptide] (H-LRNSNC(Carboxymethyl)IRHFF-OH), on PBP2a [1], the IC50 (as a rule, the concentration needed to halve the response being measured) was > 35 mM.
For the molecule `COc1cccc(OC)c1C(=O)N[C@@H]1C(=O)N2[C@@H]1SC(C)(C)[C@@H]2C(=O)O` [methicillin], the “rate constant for covalent attachment to PBP2a (k2)” value on PBP2a [2] was 0.0083 s⁻¹.
With `COc1ccc(C[C@H](N)C(=O)N[C@H]2[C@@H](O)[C@H](n3cnc4c(N(C)C)ncnc43)O[C@@H]2CO)cc1` [puromycin], the Kd (usually the equilibrium constant for the complex coming apart) in experiment [3] is 0.1 mM.
Regarding “LRNSNC(pen)IRHFF (residues 2-12 of SEQ ID NO: 5) (peptide)”, the fold improvement compared to 6-APA in experiment [4] is 100 fold. The IC50 in experiment [5] turned out to be 7 mM.
As for “LRNSNC(COOH)IRHFF (residues 2-12 of SEQ ID NO: 5) (peptide)”, the concentration for half-maximal inhibition (IC50) in experiment [6] is > 35 mM.
Consider `CC1(C)S[C@@H]2[C@H](NC(=O)Cc3ccccc3)C(=O)N2[C@H]1C(=O)O` [benzyl penicillin], for which, at PBP2a [2], the “rate constant for covalent attachment to PBP2a (k2)” value was 0.22 s⁻¹.
For `CC[C@H](C)[C@H](NC(=O)[C@H](CSCC(=O)N[C@@H]1C(=O)N2[C@@H]1SC(C)(C)[C@@H]2C(=O)O)NC(=O)[C@H](CC(N)=O)NC(=O)[C@H](CO)NC(=O)[C@H](CC(N)=O)NC(=O)[C@H](CCCNC(=N)N)NC(=O)[C@@H](N)CC(C)C)C(=O)N[C@@H](CCCNC(=N)N)C(=O)N[C@@H](Cc1c[nH]cn1)C(=O)N[C@@H](Cc1ccccc1)C(=O)N[C@@H](Cc1ccccc1)C(=O)O` [LRNSNC(pen)IRHFF] (H-LRNSNC(X1)IRHFF-OH; N-terminus and C-terminus assumed), the “improvement as compared to 6-APA” value at PBP2a [1] (PBP2a inhibition) is given as “about 100 fold”.
Turning to `CNCC(=O)O` [N-methyl glycine], the “change in the binding” value in experiment [7] and in experiment [8] was “little change” each time.

Source of the values: US20030235851A1, “Methods of using sense and/or nonsense suppression to make nucleic acid-peptide display libraries containing peptides with unnatural amino acid residues” (priority 2002, published 2003).
